Values after ≈ are worked out from the molar mass of the structure shown.
Tests used:
Assay in all cases: ≥ marks a high value that may be exact or a test limit, other limits are often not marked, values filed in µg/mL are converted to µM
[1] = system: Staphylococcus aureus NCTC 12493
[2] = system: Campylobacter jejuni NCTC 11351
[3] = system: Staphylococcus aureus RN4220
Campylobacter jejuni = system: Campylobacter jejuni
[4] = system: Pseudomonas aeruginosa Q14-0208
Pseudomonas aeruginosa = system: Pseudomonas aeruginosa
[5] = system: Campylobacter jejuni NCTC 11161
[6] = system: Pseudomonas aeruginosa ATCC 27853
[7] = system: Listeria monocytogenes NCTC 11994
Escherichia coli K-12 = system: Escherichia coli K-12
[8] = system: Staphylococcus aureus ATCC 29213
Acinetobacter baumannii = system: Acinetobacter baumannii
[9] = system: Salmonella typhimurium SL1344
Escherichia coli = system: Escherichia coli
[10] = system: Klebsiella pneumoniae Q14-0285
[11] = system: Campylobacter jejuni ATCC 33292
[12] = system: Staphylococcus aureus USA 300
[13] = system: Klebsiella pneumoniae NCTC 13442
[14] = system: Staphylococcus aureus ATCC 33591
[15] = system: Pseudomonas aeruginosa PAO1
[16] = system: Acinetobacter baumannii Q13-0717
[17] = system: Pseudomonas aeruginosa Q14-0890
[18] = system: Staphylococcus aureus Q14-0320
[19] = system: Klebsiella pneumoniae ATCC 700603
[20] = system: Staphylococcus aureus MRSA-15
[21] = system: Enterococcus faecalis JH-2-2
[22] = system: Saccharomyces cerevisiae KCTC 7296
[23] = system: Staphylococcus epidermidis
[24] = system: Staphylococcus epidermidis KCTC 1917
[25] = system: Staphylococcus aureus KCTC 1621
[26] = system: Trichosporon beigelii KCTC 7707
[27] = system: Candida albicans KCTC 7270
Proteus vulgaris = system: Proteus vulgaris
[28] = system: Salmonella typhimurium KCTC 1926
[29] = system: Aspergillus fumigatus KCTC 6145
[30] = system: Pseudomonas aeruginosa KCTC 1637
Fusarium verticillioides = system: Fusarium verticillioides
[31] = system: Escherichia coli KCTC 1682
[32] = system: Aspergillus flavus KCTC 9471
Botrytis cinerea = system: Botrytis cinerea
[33] = system: Escherichia coli O157:H7 ATCC 43895
[34] = system: Listeria monocytogenes KCTC 3710
[35] = system: Bacillus subtilis KCTC 1918
[36] = system: Klebsiella pneumoniae Q14-0095
[37] = system: Acinetobacter baumannii Q12-0867
[38] = system: Acinetobacter baumannii Q12-0809
[39] = system: Pseudomonas aeruginosa Q12-0581

| MIC [1] [µM] | MIC [2] [µM] | MIC [3] [µM] | MIC (Campylobacter jejuni) [µM] | MIC [4] [µM] | MIC [6] [µM] | MIC [7] [µM] | MIC (Escherichia coli K-12) [µM] | MIC [8] [µM] | MIC [9] [µM] | MIC (Escherichia coli) [µM] | MIC [13] [µM] | MIC [15] [µM] | MIC [16] [µM] | MIC [17] [µM] | MIC [18] [µM] | MIC [19] [µM] | MIC [20] [µM] | MIC [21] [µM] | Structure (SMILES) | MIC (Pseudomonas aeruginosa) [µM] | further results |
| --- | --- | --- | --- | --- | --- | --- | --- | --- | --- | --- | --- | --- | --- | --- | --- | --- | --- | --- | --- | --- | --- |
| 26.3 (≈ 64 µg/mL) | ≥ 52.6 | 13.1 (≈ 32 µg/mL) | ≥ 52.6 | 13.1 (≈ 32 µg/mL) | > 52.6 | 13.1 (≈ 32 µg/mL) | 26.3 (≈ 64 µg/mL) | > 52.6 | 13.1 (≈ 32 µg/mL) | > 52.6 | ≥ 52.6 | 52.6 (≈ 128 µg/mL) | 3.29 (≈ 8 µg/mL) | 26.3 (≈ 64 µg/mL) | ≥ 52.6 | 26.3 (≈ 64 µg/mL) | 13.1 (≈ 32 µg/mL) | 13.1 (≈ 32 µg/mL) | CC[C@H](C)[C@H](NC(=O)[C@H](CCCN=C(N)N)NC(=O)[C@@H](NC(=O)[C@H](CC(C)C)NC(=O)[C@H](CC(C)C)NC(=O)[C@H](CCCCN)NC(=O)[C@H](CC(N)=O)NC(=O)[C@@H](NC(=O)[C@H](CCCN=C(N)N)NC(=O)[C@H](CCCN=C(N)N)NC(=O)[C@H](CC(C)C)NC(=O)[C@@H](N)Cc1cnc[nH]1)[C@@H](C)CC)[C@@H](C)O)C(=O)NCC(=O)N[C@@H](CC(C)C)C(=O)N[C@@H](Cc1ccc(O)cc1)C(=O)N[C@@H](CCCN=C(N)N)C(=O)N[C@@H](Cc1cnc[nH]1)C(=O)N[C@@H](C)C(=O)N[C@@H](Cc1ccccc1)C(=O)NCC(=O)O [HLRRINKLLTRIGLYRHAFG] | 105 (≈ 256 µg/mL) | MIC [5]: 13.1 µM (≈ 32 µg/mL); MIC (Acinetobacter baumannii): 6.57 µM (≈ 16 µg/mL); MIC [10]: 26.3 µM (≈ 64 µg/mL); MIC [11]: 13.1 µM (≈ 32 µg/mL); MIC [12]: ≥ 105 µM; MIC [14]: ≥ 52.6 µM |
| 6.68 (≈ 16 µg/mL) | ≥ 53.4 | ≥ 107 | ≥ 53.4 | 26.7 (≈ 64 µg/mL) | 53.4 (≈ 128 µg/mL) | ≥ 53.4 | ≥ 107 | 26.7 (≈ 64 µg/mL) | ≥ 107 | > 53.4 | ≥ 53.4 | 214 (≈ 512 µg/mL) | 26.7 (≈ 64 µg/mL) | 13.4 (≈ 32 µg/mL) | 26.7 (≈ 64 µg/mL) | 26.7 (≈ 64 µg/mL) | ≥ 104 | ≥ 107 | CC(C)[C@H](NC(=O)[C@@H](N)CCC(N)=O)C(=O)N[C@@H](CCCN=C(N)N)C(=O)N[C@@H](Cc1c[nH]c2ccccc12)C(=O)N[C@@H](Cc1c[nH]c2ccccc12)C(=O)NCC(=O)N[C@@H](CCCN=C(N)N)C(=O)N[C@@H](Cc1ccc(O)cc1)C(=O)N[C@@H](Cc1c[nH]c2ccccc12)C(=O)N[C@@H](CCCN=C(N)N)C(=O)N[C@@H](CCCN=C(N)N)C(=O)N[C@@H](CCCCN)C(=O)N[C@@H](Cc1c[nH]c2ccccc12)C(=O)N[C@@H](C)C(=O)N[C@H](C(=O)N[C@@H](CS)C(=O)N[C@@H](CCCN=C(N)N)C(=O)O)[C@@H](C)O [QVRWWGRYWRRKWATCR] |  | MIC [36]: ≥ 53.4 µM; MIC [37]: 6.68 µM (≈ 16 µg/mL); MIC [38]: 13.4 µM (≈ 32 µg/mL); MIC [39]: ≥ 53.4 µM |

| Structure (SMILES) | MIC [1] [µM] | MIC [2] [µM] | MIC [3] [µM] | MIC (Campylobacter jejuni) [µM] | MIC [4] [µM] | MIC [6] [µM] | MIC [7] [µM] | MIC (Escherichia coli K-12) [µM] | MIC [8] [µM] | MIC [9] [µM] | MIC (Escherichia coli) [µM] | MIC [13] [µM] | MIC [15] [µM] | MIC [16] [µM] | MIC [17] [µM] | MIC [18] [µM] | MIC [19] [µM] | MIC [20] [µM] | MIC [21] [µM] | MIC (Pseudomonas aeruginosa) [µM] | further results |
| --- | --- | --- | --- | --- | --- | --- | --- | --- | --- | --- | --- | --- | --- | --- | --- | --- | --- | --- | --- | --- | --- |
| CC[C@H](C)[C@H](NC(=O)[C@H](CCCCN)NC(=O)[C@H](CO)NC(=O)[C@H](Cc1ccccc1)NC(=O)[C@H](CC(C)C)NC(=O)[C@H](CCCCN)NC(=O)[C@H](CCC(=O)O)NC(=O)[C@H](CC(C)C)NC(=O)[C@H](CCCN=C(N)N)NC(=O)[C@H](CCCCN)NC(=O)[C@H](Cc1ccccc1)NC(=O)[C@@H](NC(=O)[C@H](CCCCN)NC(=O)[C@H](CCCCN)NC(=O)[C@H](C)N)C(C)C)C(=O)N[C@@H](CCC(N)=O)C(=O)N[C@@H](CC(N)=O)C(=O)N[C@@H](CC(=O)O)C(=O)N[C@@H](CCCCN)C(N)=O [AKKVFKRLEKLFSKIQNDK] |  |  |  |  |  |  |  |  |  |  | 3.13 (≈ 7.26 µg/mL) |  |  |  |  |  |  |  |  | 6.25 (≈ 14.5 µg/mL) | MIC [22]: 25 µM (≈ 58 µg/mL); MIC [23]: 6.25 µM (≈ 14.5 µg/mL); MIC [24]: 3.12 µM (≈ 7.25 µg/mL); MIC [25]: 12.5 µM (≈ 29 µg/mL); MIC [26]: 3.13 µM (≈ 7.26 µg/mL); MIC [27]: 25 µM (≈ 58 µg/mL); MIC (Proteus vulgaris): 4.42 µM (≈ 10.3 µg/mL); MIC [28]: 1.56 µM (≈ 3.62 µg/mL); MIC [29]: ≥ 50 µM; MIC [30]: 1.56 µM (≈ 3.62 µg/mL); MIC (Fusarium verticillioides): 25 µM (≈ 58 µg/mL); MIC [31]: 12.5 µM (≈ 29 µg/mL); MIC [32]: ≥ 50 µM; MIC (Botrytis cinerea): 12.5 µM (≈ 29 µg/mL); MIC [33]: 12.5 µM (≈ 29 µg/mL); MIC [34]: 6.25 µM (≈ 14.5 µg/mL); MIC [35]: 3.13 µM (≈ 7.26 µg/mL) |
